Test results published in ChEMBL document CHEMBL5614376, “Discovery of MT-1207: A Novel, Potent Multitarget Inhibitor as a Promising Clinical Candidate for the Treatment of Hypertension” (J Med Chem, 2024).
Active and inactive are the calls of the source. The rule behind the calls is not given here.

Columns and labels:
[1] = Plasma protein binding in Beagle dog at 10 uM incubated for 30 mins; type: ADME, cell-free, Canis lupus familiaris; conditions: read-out: PPB (converted)
[2] = Plasma protein binding in human at 10 uM incubated for 30 mins; type: ADME, cell-free; conditions: read-out: PPB (converted)
[3] = Metabolic stability in human plasma assessed as enzymatic hydrolysis at 50 to 10000 ng/ml incubated upto 120 mins; type: ADME, cell-free; conditions: 2 h, dose 50-10000 ng/ml
[4] = Tmax in Sprague-Dawley rat at 1 mg/kg, iv measured for 24 hrs by UPLC/MS/MS analysis; type: ADME, organism-based; conditions: in vivo
[5] = Cmax in Sprague-Dawley rat at 1 mg/kg, po measured for 24 hrs by UPLC/MS/MS analysis; type: ADME, organism-based; conditions: in vivo
[6] = AUC (0 to t) in Sprague-Dawley rat at 1 mg/kg, po measured for 24 hrs by UPLC/MS/MS analysis; type: ADME, organism-based; conditions: in vivo
[7] = Apparent volume of distribution during terminal phase in Sprague-Dawley rat at 1 mg/kg, po measured for 24 hrs by UPLC/MS/MS analysis; type: ADME, organism-based; conditions: in vivo, read-out: Vz/F
[8] = Apparent oral clearance in Sprague-Dawley rat at 1 mg/kg, po measured for 24 hrs by UPLC/MS/MS analysis; type: ADME, organism-based; conditions: in vivo
[9] = Cmax in Sprague-Dawley rat at 3 mg/kg, po measured for 24 hrs by UPLC/MS/MS analysis; type: ADME, organism-based; conditions: in vivo
[10] = Apparent volume of distribution during terminal phase in Sprague-Dawley rat at 3 mg/kg, po measured for 24 hrs by UPLC/MS/MS analysis; type: ADME, organism-based; conditions: in vivo, read-out: Vz/F
[11] = Apparent oral clearance in Sprague-Dawley rat at 9 mg/kg, po measured for 24 hrs by UPLC/MS/MS analysis; type: ADME, organism-based; conditions: in vivo
Rattus norvegicus [12] = assay: Antihypertensive activity in 2K2C renovascular hypertensive Sprague-Dawley rat model assessed as decrease in diastolic blood pressure at 10 mg/kg, po measured after 9 weeks; type: functional, organism-based
Rattus norvegicus [13] = assay: Effect on postural hypotension in Sprague-Dawley rat assessed as change in systolic blood pressure at 2.5 mg/kg, po treated for >30 mins followed by induction of postural hypotension measured immediately after postural change (reference value: 131 +/- 9 mmHg); type: functional; conditions: 0.5 h
Rattus norvegicus [14] = assay: Effect on postural hypotension in Sprague-Dawley rat assessed as change in systolic blood pressure at 10 mg/kg, po treated for >30 mins followed by induction of postural hypotension measured immediately after postural change (reference value: 131 +/- 9 mmHg); type: functional; conditions: 0.5 h
Rattus norvegicus [15] = assay: Effect on postural hypotension in Sprague-Dawley rat assessed as change in systolic blood pressure at 2.5 mg/kg, po treated for >30 mins followed by induction of postural hypotension measured 10 secs after postural change (reference value: 127 +/- 12 mmHg); type: functional; conditions: time > 30.17 min, 0.5028 h
Rattus norvegicus [16] = assay: Effect on postural hypotension in Sprague-Dawley rat assessed as change in systolic blood pressure at 10 mg/kg, po treated for >30 mins followed by induction of postural hypotension measured 40 secs after postural change (reference value: 128 +/- 11 mmHg); type: functional; conditions: time > 30.67 min, 0.5112 h
Rattus norvegicus [17] = assay: Effect on postural hypotension in Sprague-Dawley rat assessed as change in systolic blood pressure at 5 mg/kg, po treated for >30 mins followed by induction of postural hypotension measured 60 secs after postural change (reference value: 127 +/- 10 mmHg); type: functional; conditions: time > 31 min
[18] = Acute toxicity in Sprague-Dawley rat assessed as discernible drug-related alterations at 250 to 1000 mg/kg, po single administration measured for 14 days; type: organism-based; conditions: in vivo, 336 h, dose 250-1000 mg/kg, time 14 day
[19] = Acute toxicity in Sprague-Dawley rat with single oral administration measured for 14 days; conditions: in vivo, time 14 day
[20] = Toxicity in Sprague-Dawley rat assessed as notable drug-related change at 10 to 100 mg/kg, po qd treated for 13 weeks consecutively measured after 4 week recovery period; type: organism-based; conditions: in vivo, 2856 h, dose 10-100 mg/kg, time 17 weeks
[21] = Toxicity in male Sprague-Dawley rat assessed as change in body weight at 30 mg/kg, po qd treated for 13 weeks consecutively measured post-cessation of treatment; type: organism-based; conditions: in vivo, 2184 h
[22] = Toxicity in female Sprague-Dawley rat assessed as reduction in body weight at 100 mg/kg, po qd treated for 4 days consecutively; type: organism-based; parameters: scale not given: the % may be the effect or the level left; conditions: in vivo, 96 h, time 4 day
[23] = Tmax in female Sprague-Dawley rat at 10 mg/kg, po measured on day 1 by UP/LC/MS/MS analysis; type: ADME, organism-based; conditions: in vivo, time 1 day
[24] = Tmax in male Sprague-Dawley rat at 30 mg/kg, po measured on day 1 by UP/LC/MS/MS analysis; type: ADME, organism-based; conditions: in vivo, time 1 day
[25] = AUC (0 to t) in female Sprague-Dawley rat at 10 mg/kg, po measured on day 1 by UP/LC/MS/MS analysis; type: ADME, organism-based; conditions: in vivo, time 1 day
[26] = AUC (0 to t) in female Sprague-Dawley rat at 30 mg/kg, po measured on day 1 by UP/LC/MS/MS analysis; type: ADME, organism-based; conditions: in vivo, time 1 day
[27] = Tmax in male Sprague-Dawley rat at 30 mg/kg, po qd treated for 13 weeks consecutively measured after recovery period on day 91 by UP/LC/MS/MS analysis; type: ADME, organism-based; conditions: in vivo, time 91 day
[28] = Tmax in female Sprague-Dawley rat at 30 mg/kg, po qd treated for 13 weeks consecutively measured after recovery period on day 91 by UP/LC/MS/MS analysis; type: ADME, organism-based; conditions: in vivo, time 91 day
[29] = Cmax in male Sprague-Dawley rat at 10 mg/kg, po qd treated for 13 weeks consecutively measured after recovery period on day 91 by UP/LC/MS/MS analysis; type: ADME, organism-based; conditions: in vivo, time 91 day
[30] = Cmax in female Sprague-Dawley rat at 10 mg/kg, po qd treated for 13 weeks consecutively measured after recovery period on day 91 by UP/LC/MS/MS analysis; type: ADME, organism-based; conditions: in vivo, time 91 day
[31] = Cmax in female Sprague-Dawley rat at 30 mg/kg, po qd treated for 13 weeks consecutively measured after recovery period on day 91 by UP/LC/MS/MS analysis; type: ADME, organism-based; conditions: in vivo, time 91 day
[32] = Cmax in female Sprague-Dawley rat at 100 mg/kg, po qd treated for 13 weeks consecutively measured after recovery period on day 91 by UP/LC/MS/MS analysis; type: ADME, organism-based; conditions: in vivo, time 91 day
[33] = AUC (0 to t) in female Sprague-Dawley rat at 10 mg/kg, po qd treated for 13 weeks consecutively measured after recovery period on day 91 by UP/LC/MS/MS analysis; type: ADME, organism-based; conditions: in vivo, time 91 day
[34] = AUC (0 to t) in male Sprague-Dawley rat at 30 mg/kg, po qd treated for 13 weeks consecutively measured after recovery period on day 91 by UP/LC/MS/MS analysis; type: ADME, organism-based; conditions: in vivo, time 91 day
[35] = AUC (0 to t) in male Sprague-Dawley rat at 100 mg/kg, po qd treated for 13 weeks consecutively measured after recovery period on day 91 by UP/LC/MS/MS analysis; type: ADME, organism-based; conditions: in vivo, time 91 day
[36] = AUC (0 to t) in female Sprague-Dawley rat at 100 mg/kg, po qd treated for 13 weeks consecutively measured after recovery period on day 91 by UP/LC/MS/MS analysis; type: ADME, organism-based; conditions: in vivo, time 91 day

**Q.** With `Cl.c1ccc2c(c1)nnn2CCCCN1CCN(c2nsc3ccccc23)CC1` as the molecule, how does the fraction unbound at 0.5 h, 10 µM [1] read?
**A.** 0.007

**Q.** What about the fraction unbound at 0.5 h, 10 µM [2] of the same molecule?
**A.** 0.004

**Q.** What about the Stability [3] of the same molecule?
**A.** Stable

**Q.** And the Tmax [4]?
**A.** 0.25 h

**Q.** And the Cmax [5]?
**A.** 33.3 ng/mL

**Q.** What about the AUC(0-t) at 24 h [6] of the same molecule?
**A.** 51.7 ng·h/mL

**Q.** And the Vd/F [7]?
**A.** 51.5 L

**Q.** And the CL/F [8]?
**A.** 388 mL/min

**Q.** What about the Cmax [9] of the same molecule?
**A.** 85.7 ng/mL

**Q.** What about the Vd/F [10] of the same molecule?
**A.** 22.4 L

**Q.** And the CL/F [11]?
**A.** 587 mL/min

**Q.** What about the Activity (Rattus norvegicus [12]) of the same molecule?
**A.** Active

**Q.** And the Activity (Rattus norvegicus [13])?
**A.** 96 mmHg

**Q.** And the Activity (Rattus norvegicus [14])?
**A.** 89 mmHg

**Q.** And the Activity (Rattus norvegicus [15])?
**A.** 89 mmHg

**Q.** What about the Activity (Rattus norvegicus [16]) of the same molecule?
**A.** 85 mmHg

**Q.** And the Activity (Rattus norvegicus [17])?
**A.** 83 mmHg

**Q.** What about the Activity [18] of the same molecule?
**A.** Non-Toxic

**Q.** What about the MTD at 336 h [19] of the same molecule?
**A.** > 1000 mg/kg

**Q.** And the Activity [20]?
**A.** Non-Toxic

**Q.** And the Activity [21]?
**A.** Non-Toxic

**Q.** What about the Activity [22] of the same molecule?
**A.** ~ 3.3%

**Q.** What about the Tmax [23] of the same molecule?
**A.** 1.3 h

**Q.** What about the Tmax [24] of the same molecule?
**A.** 1 h

**Q.** And the AUC(0-t) at 24 h [25]?
**A.** 344 ng·h/mL

**Q.** What about the AUC(0-t) at 24 h [26] of the same molecule?
**A.** 1440 ng·h/mL

**Q.** And the Tmax [27]?
**A.** 1 h

**Q.** And the Tmax [28]?
**A.** 1 h

**Q.** What about the Cmax [29] of the same molecule?
**A.** 36.2 ng/mL

**Q.** And the Cmax [30]?
**A.** 140 ng/mL

**Q.** And the Cmax [31]?
**A.** 333 ng/mL

**Q.** What about the Cmax [32] of the same molecule?
**A.** 745 ng/mL

**Q.** And the AUC(0-t) at 2184 h [33]?
**A.** 439 ng·h/mL

**Q.** And the AUC(0-t) at 2184 h [34]?
**A.** 672 ng·h/mL

**Q.** What about the AUC(0-t) at 2184 h [35] of the same molecule?
**A.** 4790 ng·h/mL

**Q.** And the AUC(0-t) at 2184 h [36]?
**A.** 7450 ng·h/mL
